The numbers were not newly measured in patent publication US11654095B2, “Method for dyeing keratinous material, comprising the use of an organosilicon compound, a chromophoric compound, a modified fatty acid ester and a sealing reagent II” (Henkel AG & Co. KGaA, priority 2019, dated 2023), which cites them from elsewhere.

Read-outs that look alike come from different tables or passages of the source.

For the compound `O=S(=O)([O-])c1ccc(N=Nc2c(O)ccc3ccccc23)cc1.[Na+]` [Acid Orange 7, sodium salt of 4-[(2-hydroxy-1-naphthyl)azo]benzene sulphonate], the solubility in water entry (25° C.) is listed as “more than 7 g/L”.
For the compound `Nc1cc(S(=O)(=O)[O-])cc2cc(S(=O)(=O)[O-])c(N=Nc3ccccc3)c(O)c12.[Na+].[Na+]` [Acid Red 33, disodium salt of 5-amino-4-hydroxy-3-(phenylazo)-naphthalene-2,7-disulphonate], the solubility in water (25° C.) was 2500 µg/mL.
For the compound `O=C([O-])c1c(Cl)c(Cl)c(Cl)c(Cl)c1-c1c2c(Br)cc(=O)c(Br)c-2oc2c(Br)c(O)cc(Br)c12.O=C([O-])c1c(Cl)c(Cl)c(Cl)c(Cl)c1-c1c2c(Br)cc(=O)c(Br)c-2oc2c(Br)c(O)cc(Br)c12.[Na+].[Na+]` [Acid Red 92, disodium salt of 3,4,5,6-tetrachloro-2-(1,4,5,8-tetrabromo-6-hydroxy-3-oxoxanthen-9-yl)benzoic acid], under “25° C.”, the solubility in water result was “greater than 10 g/L”.
As for `O=C([O-])C1=NN(c2ccc(S(=O)(=O)[O-])cc2)C(=O)C1N=Nc1ccc(S(=O)(=O)[O-])cc1.[Na+].[Na+].[Na+]` (stereo not shown) [Acid Yellow 23, trisodium salt of 4,5-dihydro-5-oxo-1-(4-sulfophenyl)-4-((4-sulfophenyl)azo)-1H-pyrazole-3-carboxylic acid], the “solubility in water” value (water at 25° C.) was “highly soluble”.
